# Values quoted from earlier work, collected in patent publication US20040235879A1, “Method for treatment of chemotherapy-induced diarrhea” (priority 2003, published 2004).
# Structures can show the parent of a compound that is named as a salt.
# Experiments:
# [1] = cited from earlier work
# [2] = target: T1, BCRP/MXR/ABCP (ABCG2) (Homo sapiens, UniProt Q9UNQ0); settings: cited from earlier work
# T1 sequence (Q9UNQ0 1-655): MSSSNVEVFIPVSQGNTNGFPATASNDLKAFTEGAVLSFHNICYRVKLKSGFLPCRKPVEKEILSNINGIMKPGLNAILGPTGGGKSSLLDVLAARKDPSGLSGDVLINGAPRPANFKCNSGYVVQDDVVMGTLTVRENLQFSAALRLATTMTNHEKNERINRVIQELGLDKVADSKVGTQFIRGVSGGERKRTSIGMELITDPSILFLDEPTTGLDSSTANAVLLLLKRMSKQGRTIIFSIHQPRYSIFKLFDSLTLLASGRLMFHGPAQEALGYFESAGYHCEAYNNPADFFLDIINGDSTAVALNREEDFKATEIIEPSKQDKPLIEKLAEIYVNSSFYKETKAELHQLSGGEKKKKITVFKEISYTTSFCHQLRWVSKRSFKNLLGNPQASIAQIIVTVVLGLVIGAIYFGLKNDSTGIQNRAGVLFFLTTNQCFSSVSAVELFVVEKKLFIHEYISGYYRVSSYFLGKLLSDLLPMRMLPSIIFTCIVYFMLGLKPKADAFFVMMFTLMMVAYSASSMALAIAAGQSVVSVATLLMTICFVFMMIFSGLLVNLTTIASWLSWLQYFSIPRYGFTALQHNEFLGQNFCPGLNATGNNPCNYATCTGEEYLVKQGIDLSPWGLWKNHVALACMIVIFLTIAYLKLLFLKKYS
# [3] = target: P-gp (ABCB1) (Homo sapiens, UniProt P08183); settings: cited from earlier work
# P-gp (ABCB1), sequence (P08183 whole entry, species assumed): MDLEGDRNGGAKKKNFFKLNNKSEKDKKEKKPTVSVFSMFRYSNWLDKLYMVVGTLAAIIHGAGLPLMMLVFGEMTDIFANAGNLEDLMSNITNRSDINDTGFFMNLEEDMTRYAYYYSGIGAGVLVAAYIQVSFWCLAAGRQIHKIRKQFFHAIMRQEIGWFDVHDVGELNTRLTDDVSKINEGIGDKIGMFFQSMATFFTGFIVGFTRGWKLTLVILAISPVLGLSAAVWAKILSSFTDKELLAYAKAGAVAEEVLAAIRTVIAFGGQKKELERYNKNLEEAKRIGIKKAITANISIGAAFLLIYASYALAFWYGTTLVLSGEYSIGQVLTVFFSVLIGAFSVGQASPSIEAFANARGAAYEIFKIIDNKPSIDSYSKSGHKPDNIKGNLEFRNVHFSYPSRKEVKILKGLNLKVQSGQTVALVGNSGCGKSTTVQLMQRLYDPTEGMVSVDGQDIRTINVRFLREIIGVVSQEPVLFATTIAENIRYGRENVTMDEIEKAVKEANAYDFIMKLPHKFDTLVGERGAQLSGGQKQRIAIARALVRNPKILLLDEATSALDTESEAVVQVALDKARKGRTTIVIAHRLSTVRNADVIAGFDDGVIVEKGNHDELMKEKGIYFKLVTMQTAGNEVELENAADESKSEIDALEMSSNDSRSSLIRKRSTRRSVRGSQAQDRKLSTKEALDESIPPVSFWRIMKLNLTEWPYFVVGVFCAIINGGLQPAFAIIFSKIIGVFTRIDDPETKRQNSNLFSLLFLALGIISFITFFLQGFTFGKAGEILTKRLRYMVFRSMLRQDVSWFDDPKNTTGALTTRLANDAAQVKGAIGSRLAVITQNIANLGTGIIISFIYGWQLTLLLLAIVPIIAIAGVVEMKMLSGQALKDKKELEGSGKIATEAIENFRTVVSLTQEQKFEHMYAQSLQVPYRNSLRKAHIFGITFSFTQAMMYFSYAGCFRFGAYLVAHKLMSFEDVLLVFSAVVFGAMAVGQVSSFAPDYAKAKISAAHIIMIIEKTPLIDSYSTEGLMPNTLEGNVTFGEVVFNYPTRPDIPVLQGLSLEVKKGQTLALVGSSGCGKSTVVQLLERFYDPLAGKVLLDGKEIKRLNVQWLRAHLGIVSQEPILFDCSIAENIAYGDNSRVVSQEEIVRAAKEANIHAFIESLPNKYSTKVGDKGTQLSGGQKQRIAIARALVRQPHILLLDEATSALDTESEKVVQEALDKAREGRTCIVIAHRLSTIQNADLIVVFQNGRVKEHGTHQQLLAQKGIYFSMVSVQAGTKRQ
# [4] = target: MRP2 (ABCC2) (Homo sapiens, UniProt Q92887); settings: cited from earlier work
# MRP2 (ABCC2), sequence (Q92887 whole entry, species assumed): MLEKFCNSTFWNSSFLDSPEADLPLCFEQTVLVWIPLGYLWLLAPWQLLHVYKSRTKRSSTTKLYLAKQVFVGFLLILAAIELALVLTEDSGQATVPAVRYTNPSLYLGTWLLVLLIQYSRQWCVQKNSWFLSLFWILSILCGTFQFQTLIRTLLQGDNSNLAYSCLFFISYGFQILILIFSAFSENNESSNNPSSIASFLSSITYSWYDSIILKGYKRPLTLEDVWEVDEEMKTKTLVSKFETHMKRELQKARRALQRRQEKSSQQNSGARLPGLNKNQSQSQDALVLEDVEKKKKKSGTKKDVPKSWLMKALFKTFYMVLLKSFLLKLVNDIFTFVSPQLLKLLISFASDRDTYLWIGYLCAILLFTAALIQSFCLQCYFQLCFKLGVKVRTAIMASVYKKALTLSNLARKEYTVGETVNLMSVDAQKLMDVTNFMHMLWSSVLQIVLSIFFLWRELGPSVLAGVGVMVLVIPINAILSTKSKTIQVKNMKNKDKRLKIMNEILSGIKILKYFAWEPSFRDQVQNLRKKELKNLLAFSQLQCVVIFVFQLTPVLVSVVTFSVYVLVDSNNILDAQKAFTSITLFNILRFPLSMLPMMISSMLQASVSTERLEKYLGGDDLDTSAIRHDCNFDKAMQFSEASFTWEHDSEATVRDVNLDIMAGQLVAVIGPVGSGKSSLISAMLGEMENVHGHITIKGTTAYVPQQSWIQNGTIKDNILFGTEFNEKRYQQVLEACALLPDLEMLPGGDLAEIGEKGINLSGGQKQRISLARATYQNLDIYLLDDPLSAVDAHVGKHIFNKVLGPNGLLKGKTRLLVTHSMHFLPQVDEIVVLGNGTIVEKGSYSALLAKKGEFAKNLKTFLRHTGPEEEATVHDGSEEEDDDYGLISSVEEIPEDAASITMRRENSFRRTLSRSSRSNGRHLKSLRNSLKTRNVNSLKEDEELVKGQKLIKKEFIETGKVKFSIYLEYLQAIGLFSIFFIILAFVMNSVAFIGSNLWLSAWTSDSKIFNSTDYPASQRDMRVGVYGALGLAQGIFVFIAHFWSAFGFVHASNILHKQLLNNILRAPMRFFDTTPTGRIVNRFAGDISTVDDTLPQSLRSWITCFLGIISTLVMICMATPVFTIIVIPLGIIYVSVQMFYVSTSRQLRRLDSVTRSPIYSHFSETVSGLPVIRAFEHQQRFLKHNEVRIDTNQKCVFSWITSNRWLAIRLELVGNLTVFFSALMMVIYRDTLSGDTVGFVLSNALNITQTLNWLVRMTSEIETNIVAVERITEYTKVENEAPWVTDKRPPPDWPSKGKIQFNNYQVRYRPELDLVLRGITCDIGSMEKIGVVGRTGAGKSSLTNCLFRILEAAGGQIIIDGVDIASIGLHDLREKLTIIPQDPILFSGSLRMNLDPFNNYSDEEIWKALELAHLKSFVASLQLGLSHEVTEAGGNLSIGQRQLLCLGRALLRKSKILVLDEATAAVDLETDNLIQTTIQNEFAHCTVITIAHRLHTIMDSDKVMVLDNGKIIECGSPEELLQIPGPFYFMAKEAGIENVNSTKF
smiles,measurement,setting,value
O=c1[nH]cc(F)c(=O)[nH]1 [5-fluorouracil],patients with severe or life-threatening diarrhea,[1]; 5-fluorouracil alone,About 8%
same,frequency of severe or life-threatening diarrhea,[1]; 5-fluorouracil combined with leucovorin,up to 25%
"CCc1c2c(nc3ccc(OC(=O)N4CCC(N5CCCCC5)CC4)cc13)-c1cc3c(c(=O)n1C2)COC(=O)[C@]3(O)CC [CPT-11, Irinotecan hydrochloride]",patients requiring hospitalization because of diarrhea,[1]; diarrhea alone or in combination with other gastrointestinal disturbances,more than 18%
"CCc1c2c(nc3ccc(OC(=O)N4CCC(N5CCCCC5)CC4)cc13)-c1cc3c(c(=O)n1C2)COC(=O)[C@]3(O)CC [irinotecan, [1,4′-Bipiperidine]-1′-carboxylic acid (4S)-4,11-diethyl-3,4,12,14-tetrahydro-4-hydroxy-3,14-dioxo-1H-pyrano[3′,4′:6,7]indolizino[1,2-b]quinolin-9-yl ester]",substrate of BCRP/MXR/ABCP (ABCG2),[2],substrate
same,substrate of P-gp (ABCB1),[3],substrate
same,substrate of MRP2 (ABCC2),[4],substrate
